Columns and labels:
Type in all cases: in vivo
[1] = test system: Alopecurus myosuroides (ALOMY); experiment: Pre-emergence biological efficacy, glasshouse pot test; conditions: 312 h
Experimental: (§1) Seeds of Alopecurus myosuroides (ALOMY), Setaria faberi (SETFA), Echinochloa crus-galli (ECHCG), Solanum nigrum (SOLNI), Amaranthus retoflexus (AMARE) and Ipomea hederaceae (IPOHE) were sown in standard soil in pots. After cultivation for one day under controlled conditions in a glasshouse (at 24/16° C., day/night; 14 hours light; 65% humidity), the plants were sprayed with an aqueous spray solution derived from the formulation of the technical active ingredient in acetone/water (50:50) solution containing 0.5% Tween 20 (polyoxyethelyene sorbitan monolaurate, CAS RN 9005-64-5) to give a final dose of 1000 or 250 g/ha of test compound.
(§2) The test plants were then grown under controlled conditions in the glasshouse (at 24/16° C., day/night; 14 hours light; 65% humidity) and watered twice daily. After 13 days the test was evaluated (100=total damage to plant; 0=no damage to plant).

[2] = test system: Amaranthus retoflexus (AMARE); experiment: as above; conditions: Amaranthus retroflexus, 312 h
Experimental: as §1, §2

[3] = test system: Echinochloa crus-galli (ECHCG); experiment: as above; conditions: 312 h
Experimental: as §1, §2

[4] = test system: Ipomea hederaceae (IPOHE); experiment: as above; conditions: Ipomoea hederacea, 312 h
Experimental: as §1, §2

[5] = test system: Setaria faberi (SETFA); experiment: as above; conditions: 312 h
Experimental: as §1, §2

[6] = test system: Solanum nigrum (SOLNI); experiment: as above; conditions: 312 h
Experimental: as §1, §2

[7] = test system: Alopecurus myosuroides (ALOMY); experiment: Post-emergence biological efficacy, glasshouse pot test; conditions: 312 h
Experimental: as §1, with “8 days” for “one day”
(§3) The test plants were then grown on under controlled conditions in a glasshouse (at 24/16° C., day/night; 14 hours light; 65% humidity) and watered twice daily. After 13 days the test was evaluated (100=total damage to plant; 0=no damage to plant).

[8] = test system: Amaranthus retoflexus (AMARE); experiment: as above; conditions: Amaranthus retroflexus, 312 h
Experimental: as §1, with “8 days” for “one day”
as §3

[9] = test system: Echinochloa crus-galli (ECHCG); experiment: as above; conditions: 312 h
Experimental: as §1, with “8 days” for “one day”
as §3

[10] = test system: Ipomea hederaceae (IPOHE); experiment: as above; conditions: Ipomoea hederacea, 312 h
Experimental: as §1, with “8 days” for “one day”
as §3

[11] = test system: Setaria faberi (SETFA); experiment: as above; conditions: 312 h
Experimental: as §1, with “8 days” for “one day”
as §3

[12] = test system: Solanum nigrum (SOLNI); experiment: as above; conditions: 312 h
Experimental: as §1, with “8 days” for “one day”
as §3

[13] = pre-emergence, rate 1,000 g/ha, evaluated after 13 days (100=total damage to plant; 0=no damage), read-out: Percentage damage caused to weed species, ALOMY
[14] = pre-emergence, rate 1,000 g/ha, evaluated after 13 days (100=total damage to plant; 0=no damage), read-out: Percentage damage caused to weed species, AMARE
[15] = pre-emergence, rate 1,000 g/ha, evaluated after 13 days (100=total damage to plant; 0=no damage), read-out: Percentage damage caused to weed species, ECHCG
[16] = pre-emergence, rate 1,000 g/ha, evaluated after 13 days (100=total damage to plant; 0=no damage), read-out: Percentage damage caused to weed species, IPOHE
[17] = pre-emergence, rate 1,000 g/ha, evaluated after 13 days (100=total damage to plant; 0=no damage), read-out: Percentage damage caused to weed species, SETFA
[18] = pre-emergence, rate 1,000 g/ha, evaluated after 13 days (100=total damage to plant; 0=no damage), read-out: Percentage damage caused to weed species, SOLNI
[19] = Rate 1,000 g/ha, post-emergence spray, evaluated after 13 days (100=total damage to plant; 0=no damage to plant), read-out: Percentage damage caused to weed species, post-emergence, ALOMY
[20] = Rate 1,000 g/ha, post-emergence spray, evaluated after 13 days (100=total damage to plant; 0=no damage to plant), read-out: Percentage damage caused to weed species, post-emergence, AMARE
[21] = Rate 1,000 g/ha, post-emergence spray, evaluated after 13 days (100=total damage to plant; 0=no damage to plant), read-out: Percentage damage caused to weed species, post-emergence, ECHCG
[22] = Rate 1,000 g/ha, post-emergence spray, evaluated after 13 days (100=total damage to plant; 0=no damage to plant), read-out: Percentage damage caused to weed species, post-emergence, IPOHE
[23] = Rate 1,000 g/ha, post-emergence spray, evaluated after 13 days (100=total damage to plant; 0=no damage to plant), read-out: Percentage damage caused to weed species, post-emergence, SETFA
[24] = Rate 1,000 g/ha, post-emergence spray, evaluated after 13 days (100=total damage to plant; 0=no damage to plant), read-out: Percentage damage caused to weed species, post-emergence, SOLNI
[25] = pre-emergence, 1,000 g/ha, evaluated after 13 days (100=total damage; 0=no damage), read-out: Percentage damage ALOMY
[26] = pre-emergence, 1,000 g/ha, evaluated after 13 days (100=total damage; 0=no damage), read-out: Percentage damage AMARE
[27] = pre-emergence, 1,000 g/ha, evaluated after 13 days (100=total damage; 0=no damage), read-out: Percentage damage ECHCG
[28] = pre-emergence, 1,000 g/ha, evaluated after 13 days (100=total damage; 0=no damage), read-out: Percentage damage IPOHE
[29] = pre-emergence, 1,000 g/ha, evaluated after 13 days (100=total damage; 0=no damage), read-out: Percentage damage SETFA
[30] = pre-emergence, 1,000 g/ha, evaluated after 13 days (100=total damage; 0=no damage), read-out: Percentage damage SOLNI
[31] = post-emergence, 1,000 g/ha, evaluated after 13 days (100=total damage; 0=no damage), read-out: Percentage damage caused to weed species, ALOMY
[32] = post-emergence, 1,000 g/ha, evaluated after 13 days (100=total damage; 0=no damage), read-out: Percentage damage caused to weed species, AMARE
[33] = post-emergence, 1,000 g/ha, evaluated after 13 days (100=total damage; 0=no damage), read-out: Percentage damage caused to weed species, ECHCG
[34] = post-emergence, 1,000 g/ha, evaluated after 13 days (100=total damage; 0=no damage), read-out: Percentage damage caused to weed species, IPOHE
[35] = post-emergence, 1,000 g/ha, evaluated after 13 days (100=total damage; 0=no damage), read-out: Percentage damage caused to weed species, SETFA
[36] = post-emergence, 1,000 g/ha, evaluated after 13 days (100=total damage; 0=no damage), read-out: Percentage damage caused to weed species, SOLNI

Row | SMILES | pest or weed control at 1000 g/ha [1, 13] [%] | pest or weed control at 1000 g/ha [2, 14] [%] | pest or weed control at 1000 g/ha [3, 15] [%] | pest or weed control at 1000 g/ha [4, 16] [%] | pest or weed control at 1000 g/ha [5, 17] [%] | pest or weed control at 1000 g/ha [6, 18] [%] | pest or weed control at 1000 g/ha [7, 19] [%] | pest or weed control at 1000 g/ha [8, 20] [%] | pest or weed control at 1000 g/ha [1, 25] [%] | pest or weed control at 1000 g/ha [2, 26] [%] | pest or weed control at 1000 g/ha [3, 27] [%] | pest or weed control at 1000 g/ha [4, 28] [%] | pest or weed control at 1000 g/ha [5, 29] [%] | pest or weed control at 1000 g/ha [6, 30] [%] | pest or weed control at 1000 g/ha [7, 31] [%] | pest or weed control at 1000 g/ha [8, 32] [%] | pest or weed control at 1000 g/ha [9, 33] [%] | pest or weed control at 1000 g/ha [10, 34] [%] | pest or weed control at 1000 g/ha [11, 35] [%] | pest or weed control at 1000 g/ha [12, 36] [%] | further results
1 | COC(=O)c1nc(C2CC2)nc(N(CCO)Cc2cccnc2)c1Cl [Compound 157-156, 5-Chloro-2-cyclopropyl-4-(N-2-hydroxyethyl-N-pyrid-3-ylmethyl--amino)-6-methoxy-carbonylpyrimidine] | 0 | 40 | 0 | 40 | 0 | 20 | 0 | 40 |  |  |  |  |  |  |  |  |  |  |  |  | pest or weed control at 1000 g/ha [9, 21]: 0%; pest or weed control at 1000 g/ha [10, 22]: 40%; pest or weed control at 1000 g/ha [11, 23]: 0%; pest or weed control at 1000 g/ha [12, 24]: 40%
2 | C=Cc1c(NCc2ccco2)nc(-c2ccc(Cl)c(OC)c2F)nc1C(=O)OC [Compound 139-125, 2-(4-Chloro-2-fluoro-3-methoxyphenyl)-5-ethenyl-4-(furan-2-ylmethylamino)-6-methoxycarbonyl-pyrimidine] | 70 | 100 | 80 | 90 | 80 | 100 | 80 | 100 |  |  |  |  |  |  |  |  |  |  |  |  | pest or weed control at 1000 g/ha [9, 21]: 80%; pest or weed control at 1000 g/ha [10, 22]: 80%; pest or weed control at 1000 g/ha [11, 23]: 90%; pest or weed control at 1000 g/ha [12, 24]: 90%
3 | COC(=O)c1nc(C2CC2)nc(NC(C)c2ccc(Br)cc2)c1Cl (stereo not drawn) [Compound 4-177, 4-[1-(4-Bromophenyl)ethyl-amino]-5-chloro-2-cyclopropyl-6-methoxycarbonyl-pyrimidine] |  |  |  |  |  |  |  |  | 0 | 20 | 0 | 20 | 0 | 0 | 20 | 90 | 50 | 100 | 40 | 90 | 
4 | COC(=O)c1nc(-c2ccc(C)c(C)c2)nc(NCc2ccco2)c1Cl [Compound 255-48, 5-Chloro-2-(3,4-dimethylphenyl)-4-(furan-2-yl-methyl-amino)-6-methoxy-carbonylpyrimidine] | 0 | 20 | 0 | 10 | 0 | 0 | 0 | 70 |  |  |  |  |  |  |  |  |  |  |  |  | pest or weed control at 1000 g/ha [9, 21]: 0%; pest or weed control at 1000 g/ha [10, 22]: 10%; pest or weed control at 1000 g/ha [11, 23]: 0%; pest or weed control at 1000 g/ha [12, 24]: 40%
5 | COC(=O)c1nc(C2CC2)nc(NCc2ccccc2C)c1Cl [Compound 4-71, 5-Chloro-2-cyclopropyl-6-methoxycarbonyl-4-(2-methylphenyl-methylamino)-pyrimidine] |  |  |  |  |  |  |  |  | 20 | 90 | 20 | 70 | 20 | 20 | 20 | 100 | 60 | 100 | 80 | 90 | 
6 | O=C(O)c1nc(C2CC2)nc(NCc2c(Cl)cccc2Cl)c1Cl [Compound 1-104, 5-Chloro-2-cyclopropyl-4-(2,6-dichlorophenyl-methylamino)-pyrimidine-6-carboxylic acid] |  |  |  |  |  |  |  |  | 0 | 0 | 0 | 0 | 0 | 0 | 0 | 60 | 0 | 60 | 0 | 50 | 
7 | COC(=O)c1nc(C2CC2)nc(N[C@@H](C)c2cccc(OC)c2)c1Cl [4-180 (S), (S)-5-Chloro-2-cyclopropyl-6-methoxycarbonyl-4-[1-(3-methoxy-phenyl)ethylamino]-pyrimidine] |  |  |  |  |  |  |  |  | 0 | 20 | 0 | 80 | 0 | 10 | 20 | 80 | 50 | 80 | 30 | 70 | 

— patent US20110086759A1, “CHEMICAL COMPOUNDS” (SYNGENTA CROP PROTECTION, INC., priority 2007, published 2011)
